In paper PMC5218480 (PLoS ONE, 2017):

System: MV-4-11 cells
Assay: Gene expression microarray analysis (Affymetrix PrimeView) and GSEA
Assay type: cell-based, human
Design: RFU PODN (11730768_x_at) / Fold change /veh PODN (11730768_x_at) / RFU LINC00158 (11744669_a_at) / Fold change /veh LINC00158 (11744669_a_at) / RFU DUSP10 (11751237_a_at) / Fold change /veh DUSP10 (11751237_a_at) / RFU ID3 (11757404_x_at) / Fold change /veh ID3 (11757404_x_at) / RFU PLEKHG5 (11737974_s_at) / Fold change /veh PLEKHG5 (11737974_s_at) / RFU LRRC4B (11730491_at) / Fold change /veh LRRC4B (11730491_at) / RFU GIMAP4 (11747438_a_at) / Fold change /veh GIMAP4 (11747438_a_at) / RFU KRT8 (11758183_x_at) / Fold change /veh KRT8 (11758183_x_at) / RFU CNN1 (11734310_a_at) / Fold change /veh CNN1 (11734310_a_at) / RFU VPS37D (11726825_at) / Fold change /veh VPS37D (11726825_at) / RFU C10orf10 (11716522_x_at) / Fold change /veh C10orf10 (11716522_x_at) / RFU KIR2DL2 /// KIR2DL4 /// KIR2DL5A /// KIR2DL5B /// KIR2DS1 /// KIR2DS2 /// KIR2DS3 /// KIR2DS4 /// KIR3DL3 /// KIR3DL3 /// KIR3DS1 (11738374_at) / Fold change /veh KIR2DL2 /// KIR2DL4 /// KIR2DL5A /// KIR2DL5B /// KIR2DS1 /// KIR2DS2 /// KIR2DS3 /// KIR2DS4 /// KIR3DL3 /// KIR3DL3 /// KIR3DS1 (11738374_at) / RFU C1QL1 (11718748_at) / Fold change /veh C1QL1 (11718748_at) / RFU TMPRSS4 (11747572_a_at) / Fold change /veh TMPRSS4 (11747572_a_at) / RFU HAMP (11756126_x_at) / Fold change /veh HAMP (11756126_x_at) / RFU RNFT2 (11725882_a_at) / Fold change /veh RNFT2 (11725882_a_at) / RFU NR4A2 (11747474_a_at) / Fold change /veh NR4A2 (11747474_a_at) / RFU ABCC12 (11746883_a_at) / Fold change /veh ABCC12 (11746883_a_at) / RFU TMEM136 (11760407_x_at) / Fold change /veh TMEM136 (11760407_x_at) / RFU CLDN22 /// WWC2 (11732394_at) / Fold change /veh CLDN22 /// WWC2 (11732394_at) / RFU HLA-DPB1 (11760878_x_at) / Fold change /veh HLA-DPB1 (11760878_x_at) / RFU SPINT1 (11716480_a_at) / Fold change /veh SPINT1 (11716480_a_at) / RFU GAP43 (11754022_s_at) / Fold change /veh GAP43 (11754022_s_at) / RFU A4GNT (11735810_at) / Fold change /veh A4GNT (11735810_at) / RFU PRB3 (11715151_x_at) / Fold change /veh PRB3 (11715151_x_at) / RFU TUBB4B (11761932_at) / Fold change /veh TUBB4B (11761932_at) / RFU CAPN14 (11732068_a_at) / Fold change /veh CAPN14 (11732068_a_at) / RFU TMCC2 (11721928_a_at) / Fold change /veh TMCC2 (11721928_a_at) / RFU IRGQ (11745062_a_at) / Fold change /veh IRGQ (11745062_a_at) / RFU FAM174B (11720279_a_at) / Fold change /veh FAM174B (11720279_a_at) / RFU TMPRSS4 (11748680_a_at) / Fold change /veh TMPRSS4 (11748680_a_at) / RFU FAM212B (11763350_a_at) / Fold change /veh FAM212B (11763350_a_at) / RFU PLEKHG5 (11743358_a_at) / Fold change /veh PLEKHG5 (11743358_a_at) / RFU ZSCAN30 (11745921_a_at) / Fold change /veh ZSCAN30 (11745921_a_at) / RFU CMKLR1 (11741424_a_at) / Fold change /veh CMKLR1 (11741424_a_at) / RFU LOC101060620 /// MAPK8IP1 (11723275_at) / Fold change /veh LOC101060620 /// MAPK8IP1 (11723275_at) / RFU SPTSSB (11747773_x_at) / Fold change /veh SPTSSB (11747773_x_at) / RFU PRSS12 (11739890_at) / Fold change /veh PRSS12 (11739890_at) / RFU BIN1 (11741810_x_at) / Fold change /veh BIN1 (11741810_x_at) / RFU WNT11 (11732464_a_at) / Fold change /veh WNT11 (11732464_a_at) / RFU C10orf10 (11716521_a_at) / Fold change /veh C10orf10 (11716521_a_at) / RFU C5orf56 (11738089_at) / Fold change /veh C5orf56 (11738089_at) / RFU CYB561 (11721691_x_at) / Fold change /veh CYB561 (11721691_x_at) / RFU ANKRD19P (11752326_a_at) / Fold change /veh ANKRD19P (11752326_a_at) / RFU OR2T12 /// OR2T33 /// OR2T8 (11738714_s_at) / Fold change /veh OR2T12 /// OR2T33 /// OR2T8 (11738714_s_at) / RFU VCAN (11748164_a_at) / Fold change /veh VCAN (11748164_a_at) / RFU JSRP1 (11732532_at) / Fold change /veh JSRP1 (11732532_at) / RFU KRTAP10-11 (11738290_x_at) / Fold change /veh KRTAP10-11 (11738290_x_at) / RFU MYO3A (11730013_a_at) / Fold change /veh MYO3A (11730013_a_at) / RFU EBF3 (11725865_a_at) / Fold change /veh EBF3 (11725865_a_at) / RFU CAMK2N1 (11719241_x_at) / Fold change /veh CAMK2N1 (11719241_x_at) / RFU C5orf56 (11738088_a_at) / Fold change /veh C5orf56 (11738088_a_at) / RFU OLFML3 (11715873_a_at) / Fold change /veh OLFML3 (11715873_a_at) / RFU LOC100653217 /// NTM (11731650_a_at) / Fold change /veh LOC100653217 /// NTM (11731650_a_at) / RFU MAPK11 (11762145_a_at) / Fold change /veh MAPK11 (11762145_a_at) / RFU FIZ1 (11724087_x_at) / Fold change /veh FIZ1 (11724087_x_at) / RFU OASL (11726364_x_at) / Fold change /veh OASL (11726364_x_at) / RFU SOX15 (11748057_x_at) / Fold change /veh SOX15 (11748057_x_at) / RFU CD79A (11719716_a_at) / Fold change /veh CD79A (11719716_a_at) / RFU HIST1H1D (11736915_at) / Fold change /veh HIST1H1D (11736915_at) / RFU CASKIN2 (11723855_a_at) / Fold change /veh CASKIN2 (11723855_a_at) / RFU LOC730098 (11760151_x_at) / Fold change /veh LOC730098 (11760151_x_at) / RFU OR4N2 (11742367_at) / Fold change /veh OR4N2 (11742367_at) / RFU PRRT2 (11749266_a_at) / Fold change /veh PRRT2 (11749266_a_at) / RFU SNX32 (11753110_a_at) / Fold change /veh SNX32 (11753110_a_at) / RFU CDHR5 (11726645_a_at) / Fold change /veh CDHR5 (11726645_a_at) / RFU RCAN1 (11760418_a_at) / Fold change /veh RCAN1 (11760418_a_at) / RFU FAM167A (11723789_a_at) / Fold change /veh FAM167A (11723789_a_at) / RFU FAM26E (11764081_at) / Fold change /veh FAM26E (11764081_at) / RFU ISYNA1 (11749810_s_at) / Fold change /veh ISYNA1 (11749810_s_at) / RFU ACY1 (11761880_at) / Fold change /veh ACY1 (11761880_at) / RFU 11764098_at / Fold change /veh 11764098_at / RFU SAMD14 (11745864_x_at) / Fold change /veh SAMD14 (11745864_x_at) / RFU NPB (11741838_a_at) / Fold change /veh NPB (11741838_a_at) / RFU TMPRSS6 (11731388_a_at) / Fold change /veh TMPRSS6 (11731388_a_at) / RFU KRTAP10-2 (11738614_at) / Fold change /veh KRTAP10-2 (11738614_at) / RFU ARHGAP8 /// PRR5-ARHGAP8 (11727945_x_at) / Fold change /veh ARHGAP8 /// PRR5-ARHGAP8 (11727945_x_at) / RFU KRTAP5-7 /// NADSYN1 (11734609_at) / Fold change /veh KRTAP5-7 /// NADSYN1 (11734609_at) / RFU RASL12 (11751679_a_at) / Fold change /veh RASL12 (11751679_a_at) / RFU CDKN2B (11736163_a_at) / Fold change /veh CDKN2B (11736163_a_at) / RFU PRF1 (11729649_at) / Fold change /veh PRF1 (11729649_at) / RFU, ZNF638 /// ZNF638-IT1 / Fold change vs veh, ZNF638 /// ZNF638-IT1 / RFU, PANK3 / Fold change vs veh, PANK3 / RFU, SH3YL1 / Fold change vs veh, SH3YL1 / RFU, ZEB2 / Fold change vs veh, ZEB2 / RFU, NRIP1 / Fold change vs veh, NRIP1 / RFU, PTTG1IP / Fold change vs veh, PTTG1IP / RFU, CAPN2 / Fold change vs veh, CAPN2 / RFU, MED14 / Fold change vs veh, MED14 / RFU, SNORA58 / Fold change vs veh, SNORA58 / RFU, C1orf63 / Fold change vs veh, C1orf63 / RFU, LRRFIP1 / Fold change vs veh, LRRFIP1 / RFU, NDUFAF7 / Fold change vs veh, NDUFAF7 / RFU, SLC12A2 / Fold change vs veh, SLC12A2 / RFU, IBTK / Fold change vs veh, IBTK / RFU, ESF1 / Fold change vs veh, ESF1 / Fold change vs veh, TMEM50B / RFU, TAOK1 / Fold change vs veh, TAOK1 / RFU, ACBD3 / Fold change vs veh, ACBD3 / RFU, TMA16 / Fold change vs veh, TMA16 / RFU, RWDD3 / Fold change vs veh, RWDD3 / RFU, BCAT1 / Fold change vs veh, BCAT1 / RFU, EDEM3 / Fold change vs veh, EDEM3 / RFU, TMEM33 / Fold change vs veh, TMEM33 / RFU, WDR75 / Fold change vs veh, WDR75 / RFU, AHCTF1 / Fold change vs veh, AHCTF1 / RFU, TFRC / Fold change vs veh, TFRC / RFU, ZDHHC17 / Fold change vs veh, ZDHHC17 / RFU, NOM1 / Fold change vs veh, NOM1 / RFU, ARL8B / Fold change vs veh, ARL8B / RFU, ZBTB11 / Fold change vs veh, ZBTB11 / RFU, TAMM41 / Fold change vs veh, TAMM41 / RFU, KIAA1704 /// LOC100996395 / Fold change vs veh, KIAA1704 /// LOC100996395 / RFU, ING1 / Fold change vs veh, ING1 / RFU, TRMT61B / Fold change vs veh, TRMT61B / RFU, FUBP3 / Fold change vs veh, FUBP3 / RFU, TP53 / Fold change vs veh, TP53 / RFU, TNKS2 / Fold change vs veh, TNKS2 / RFU, ZFP14 / Fold change vs veh, ZFP14 / RFU, ACTR2 / Fold change vs veh, ACTR2 / RFU, PPP3R1 / Fold change vs veh, PPP3R1 / RFU, PIK3R1 / Fold change vs veh, PIK3R1 / RFU, HNRNPA1 / Fold change vs veh, HNRNPA1 / RFU, RNF170 / Fold change vs veh, RNF170 / RFU, ZNF28 / Fold change vs veh, ZNF28 / RFU, RNGTT / Fold change vs veh, RNGTT / RFU, OGT / Fold change vs veh, OGT / RFU, BRD1 / Fold change vs veh, BRD1 / RFU, MARS / Fold change vs veh, MARS / RFU, ZNF655 / Fold change vs veh, ZNF655 / RFU, FAHD1 / Fold change vs veh, FAHD1 / RFU, BDP1 / Fold change vs veh, BDP1 / RFU, LRRCC1 / Fold change vs veh, LRRCC1 / RFU, ARID1A / Fold change vs veh, ARID1A / RFU, ZNF146 / Fold change vs veh, ZNF146 / RFU, ZNF330 / Fold change vs veh, ZNF330 / RFU, GPN3 / Fold change vs veh, GPN3 / RFU, C9orf123 / Fold change vs veh, C9orf123 / RFU, N4BP2L2 / Fold change vs veh, N4BP2L2 / RFU, ARFIP1 / Fold change vs veh, ARFIP1 / RFU, FAM179B / Fold change vs veh, FAM179B / RFU, BCL10 / Fold change vs veh, BCL10 / RFU, UHRF1BP1L / Fold change vs veh, UHRF1BP1L / RFU, BET1 / Fold change vs veh, BET1 / RFU, CNOT2 / Fold change vs veh, CNOT2 / RFU, ZNF268 / Fold change vs veh, ZNF268 / Fold change vs veh, ZNF507 / RFU, DGCR2 / Fold change vs veh, DGCR2 / RFU, WDSUB1 / Fold change vs veh, WDSUB1 / Fold change vs veh, HSP90B1 /// MIR3652 / RFU, ADSS / Fold change vs veh, ADSS / RFU, GK / Fold change vs veh, GK / RFU, ZNF148 / Fold change vs veh, ZNF148 / RFU, TAF9 / Fold change vs veh, TAF9 / RFU, SLC1A5 / Fold change vs veh, SLC1A5 / RFU, SLMO2 / Fold change vs veh, SLMO2 / RFU, ABCC4 / Fold change vs veh, ABCC4 / RFU, LOC101060439 /// RAP1B / Fold change vs veh, LOC101060439 /// RAP1B / RFU, RFX7 / Fold change vs veh, RFX7 / RFU, GTPBP10 / Fold change vs veh, GTPBP10 / RFU, CNEP1R1 / Fold change vs veh, CNEP1R1 / RFU, BIVM-ERCC5 /// ERCC5 / Fold change vs veh, BIVM-ERCC5 /// ERCC5 / RFU, ILF3 / Fold change vs veh, ILF3 / RFU 11762660_at / Fold change /veh 11762660_at / RFU VCAN (11757783_s_at) / Fold change /veh VCAN (11757783_s_at) / RFU DDX43 (11728927_at) / Fold change /veh DDX43 (11728927_at) / RFU KRT8 (11758188_x_at) / Fold change /veh KRT8 (11758188_x_at) / RFU NKD1 (11759106_at) / Fold change /veh NKD1 (11759106_at) / RFU SRD5A1 (11742802_a_at) / Fold change /veh SRD5A1 (11742802_a_at) / RFU TPSAB1 /// TPSB2 (11721975_s_at) / Fold change /veh TPSAB1 /// TPSB2 (11721975_s_at) / RFU GSTM3 (11746129_a_at) / Fold change /veh GSTM3 (11746129_a_at) / RFU IL23R (11737362_x_at) / Fold change /veh IL23R (11737362_x_at) / RFU TMEM51 (11727254_a_at) / Fold change /veh TMEM51 (11727254_a_at) / RFU PIWIL2 (11732686_x_at) / Fold change /veh PIWIL2 (11732686_x_at) / RFU ORM1 (11744905_x_at) / Fold change /veh ORM1 (11744905_x_at) / RFU CCDC152 (11743942_at) / Fold change /veh CCDC152 (11743942_at) / RFU ECM1 (11717891_a_at) / Fold change /veh ECM1 (11717891_a_at) / RFU IL23R (11748794_a_at) / Fold change /veh IL23R (11748794_a_at) / RFU TNFAIP8L3 (11732012_x_at) / Fold change /veh TNFAIP8L3 (11732012_x_at) / RFU MBOAT4 (11741988_at) / Fold change /veh MBOAT4 (11741988_at) / RFU 11764193_at / Fold change /veh 11764193_at / RFU TMEM53 (11763286_at) / Fold change /veh TMEM53 (11763286_at) / RFU MAGEB2 (11727129_at) / Fold change /veh MAGEB2 (11727129_at) / RFU TMEM200A (11744735_a_at) / Fold change /veh TMEM200A (11744735_a_at) / RFU CCDC152 (11751479_a_at) / Fold change /veh CCDC152 (11751479_a_at) / RFU FAM211A (11726209_a_at) / Fold change /veh FAM211A (11726209_a_at) / RFU RGS16 (11746705_a_at) / Fold change /veh RGS16 (11746705_a_at) / RFU VCAN (11755009_s_at) / Fold change /veh VCAN (11755009_s_at) / RFU RHOB (11743442_s_at) / Fold change /veh RHOB (11743442_s_at) / RFU RGS16 (11720943_a_at) / Fold change /veh RGS16 (11720943_a_at) / RFU RGS16 (11720944_at) / Fold change /veh RGS16 (11720944_at) / RFU, VPS4B / Fold change vs veh, VPS4B / RFU, CREB1 / Fold change vs veh, CREB1 / RFU, DNAJC13 / Fold change vs veh, DNAJC13 / RFU, GNAQ / Fold change vs veh, GNAQ / RFU, CDK5R1 / Fold change vs veh, CDK5R1 / RFU, ZRANB3 / Fold change vs veh, ZRANB3 / RFU, CUL4A / Fold change vs veh, CUL4A / RFU, CCNY / Fold change vs veh, CCNY / RFU, UFL1 / Fold change vs veh, UFL1 / RFU, COG3 / Fold change vs veh, COG3 / RFU, DIAPH2 / Fold change vs veh, DIAPH2 / RFU, SKA2 / Fold change vs veh, SKA2 / RFU, AFF3 / Fold change vs veh, AFF3 / RFU, LMF1 / Fold change vs veh, LMF1 / RFU, IPO11 / Fold change vs veh, IPO11 / RFU, DFFB / Fold change vs veh, DFFB / RFU, FOXP1 / Fold change vs veh, FOXP1 / RFU, CARD8 / Fold change vs veh, CARD8 / RFU, STRN3 / Fold change vs veh, STRN3 / RFU, ADK / Fold change vs veh, ADK / RFU, RASSF2 / Fold change vs veh, RASSF2 / RFU, WIPF1 / Fold change vs veh, WIPF1 / RFU, LARP1B / Fold change vs veh, LARP1B / RFU, RASA1 / Fold change vs veh, RASA1 / RFU, RB1 / Fold change vs veh, RB1 / RFU, PPFIA1 / Fold change vs veh, PPFIA1 / RFU, MAT2A / Fold change vs veh, MAT2A / RFU, CCT5 / Fold change vs veh, CCT5 / RFU, WDR92 / Fold change vs veh, WDR92 / RFU, CUX1 / Fold change vs veh, CUX1 / RFU, TTC7A / Fold change vs veh, TTC7A / RFU, TMEM135 / Fold change vs veh, TMEM135 / RFU, DEPTOR / Fold change vs veh, DEPTOR / RFU, CPM / Fold change vs veh, CPM / RFU, DNAJB6 / Fold change vs veh, DNAJB6 / RFU, CACNA2D3 / Fold change vs veh, CACNA2D3 / RFU, DTX4 / Fold change vs veh, DTX4 / RFU, TFCP2 / Fold change vs veh, TFCP2 / RFU, GMCL1 /// GMCL1P1 / Fold change vs veh, GMCL1 /// GMCL1P1 / RFU, AEBP2 / Fold change vs veh, AEBP2 / RFU, SNHG1 /// SNORD22 /// SNORD25 /// SNORD26 /// SNORD27 /// SNORD28 /// SNORD29 /// SNORD31 / Fold change vs veh, SNHG1 /// SNORD22 /// SNORD25 /// SNORD26 /// SNORD27 /// SNORD28 /// SNORD29 /// SNORD31 / Fold change (Aza/veh), C12orf56 (ProbeSet 11735607_a_at) / Fold change (ACY-1035/veh), C12orf56 (ProbeSet 11735607_a_at) / Fold change (Aza/veh), FGFR1OP (ProbeSet 11751329_s_at) / Fold change (ACY-1035/veh), FGFR1OP (ProbeSet 11751329_s_at) / Fold change (Aza/veh), VPS36 (ProbeSet 11739960_a_at) / Fold change (ACY-1035/veh), VPS36 (ProbeSet 11739960_a_at) / RFU SYPL1 (11715823_x_at) / Fold change /veh SYPL1 (11715823_x_at) / RFU IGFBP7 (11715501_s_at) / Fold change /veh IGFBP7 (11715501_s_at) / RFU REEP3 (11722064_at) / Fold change /veh REEP3 (11722064_at) / RFU IGLL1 (11728026_x_at) / Fold change /veh IGLL1 (11728026_x_at): dose or concentration left out as unconfirmed
Settings: ProbeSet 11745789_a_at; LIST D

SMILES: Nc1ncn([C@@H]2O[C@H](CO)[C@@H](O)[C@H]2O)c(=O)n1 [azacitidine]
- RFU, TMEM135: 108.05 RFU
